Data as given in ChEMBL document CHEMBL3351894, “Development and evaluation of ST-1829 based on 5-benzylidene-2-phenylthiazolones as promising agent for anti-leukotriene therapy” (Eur J Med Chem, 2015).
Converted amounts (≈) assume the structure as drawn. The source made the active and inactive calls. The calls are words filed in the database; no cut-off is given here.

Experiments:
[1] = target: T1, Polyunsaturated fatty acid 5-lipoxygenase (Homo sapiens, UniProt P09917); assay: Inhibition of 5-LO in human PMNL using arachidonic acid as substrate assessed as product formation incubated for 15 mins prior to substrate addition measured after 10 mins by HPLC analysis
T1 sequence (P09917 whole entry): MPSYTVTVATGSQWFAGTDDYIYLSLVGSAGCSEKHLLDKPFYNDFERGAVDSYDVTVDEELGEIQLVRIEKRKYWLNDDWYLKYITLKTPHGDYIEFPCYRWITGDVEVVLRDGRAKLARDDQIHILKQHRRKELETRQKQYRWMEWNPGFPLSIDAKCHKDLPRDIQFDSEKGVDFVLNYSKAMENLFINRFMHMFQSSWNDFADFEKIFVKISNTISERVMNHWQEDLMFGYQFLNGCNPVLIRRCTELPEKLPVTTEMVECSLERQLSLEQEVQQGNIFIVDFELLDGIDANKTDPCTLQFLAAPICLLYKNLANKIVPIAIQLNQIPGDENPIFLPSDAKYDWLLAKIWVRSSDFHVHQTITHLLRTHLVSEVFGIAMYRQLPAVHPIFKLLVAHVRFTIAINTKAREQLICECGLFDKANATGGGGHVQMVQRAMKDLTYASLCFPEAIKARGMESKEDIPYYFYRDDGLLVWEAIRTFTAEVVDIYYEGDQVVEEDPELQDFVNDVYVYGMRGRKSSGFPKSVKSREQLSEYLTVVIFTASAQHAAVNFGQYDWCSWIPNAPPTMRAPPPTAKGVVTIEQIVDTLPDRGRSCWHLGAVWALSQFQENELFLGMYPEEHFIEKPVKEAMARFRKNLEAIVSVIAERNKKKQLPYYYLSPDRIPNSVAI

[2] = target: T1, Polyunsaturated fatty acid 5-lipoxygenase; assay: Inhibition of 5-LO in human PMNL S100 extract using arachidonic acid as substrate incubated for 15 mins prior to substrate addition measured after 10 mins by HPLC analysis
[3] = Solubility of the compound in DMSO at RT; format: physicochemical
[4] = Solubility of the compound in PBS at pH 7.4 at RT; format: physicochemical
[5] = Cytotoxicity against human U937 cells at 100 uM after 48 hrs by LDH assay; format: cell-based; conditions: u-937, 48 h
[6] = Cytotoxicity against human U937 cells assessed as cell viability at 100 uM after 48 hrs by WST-1 assay; format: cell-based, U-937; conditions: read-out: Activity
[7] = target: T2, Polyunsaturated fatty acid 5-lipoxygenase (Homo sapiens) (UniProt P09917); assay: Inhibition of 5-LO in human PMNL using arachidonic acid as substrate assessed as product formation at 1 to 10 uM incubated for 15 mins prior to substrate addition measured after 10 mins by HPLC analysis in presence of 10% fetal calf serum
T2 sequence (whole entry): T1 sequence (P09917 whole entry)

[8] = target: T2, Polyunsaturated fatty acid 5-lipoxygenase (Homo sapiens); assay: Reversible inhibition of 5-LO in human PMNL using arachidonic acid as substrate assessed as product formation incubated for 15 mins followed by compound washout measured after 10 mins by HPLC analysis
[9] = target: T2, Polyunsaturated fatty acid 5-lipoxygenase (Homo sapiens); conditions: 0.01 to 1 uM
Description: Inhibition of 5-LO in human PMNL using arachidonic acid as substrate assessed as product formation at 0.01 to 1 uM incubated for 15 mins prior to substrate addition measured after 10 mins by HPLC analysis in presence of 10% fetal calf serum

[10] = Cytotoxicity against human U937 cells assessed as cell viability after 48 hrs by WST-1 assay; format: cell-based; conditions: U-937, 48 h
[11] = Cytotoxicity against human U937 cells at 30 uM after 48 hrs by LDH assay; format: cell-based; conditions: u-937, 48 h

Row | Compound | IC50 [1] | IC50 [2] | also measured
1 | COc1ccc(/C=C2\SC(c3ccc(C)cc3)N(C)C2=O)cc1 (stereo unspecified) | 940 nM | > 30000 nM | 
2 | COc1ccc(/C=C2/SC(c3ccc(Cl)cc3)=NC2=O)cc1 | 280 nM | 80 nM | solubility [3]: 15 mM (≈ 4950 µg/mL); solubility [4]: 0.03 mM (≈ 9.89 µg/mL)
3 | COc1ccc(/C=C2\SC(c3ccc[n+](C)c3)=NC2=O)cc1 | > 30000 nM | 4620 nM | 
4 | Cc1ccc(C2=NC(=O)/C(=C/c3ccncc3)S2)cc1 | 2190 nM | 330 nM | 
5 | Cc1ccc(C2=NC(=O)/C(=C/c3ccc(N4CCOCC4)cc3)S2)cc1 | 3650 nM | 1070 nM | solubility [3]: 10 mM (≈ 3640 µg/mL); solubility [4]: 0.01 mM (≈ 3.64 µg/mL)
6 | Cc1ccc(C2=NC(=O)/C(=C/c3c[nH]c4ccccc34)S2)cc1 | 1070 nM | > 3000 nM | 
7 | COc1ccc(/N=C2\SC(c3ccc(C)cc3)=NC2=O)cc1 | 10300 nM | 8220 nM | 
8 | COc1ccc(/C=C2\SC(c3cnccn3)=NC2=O)cc1 | 2870 nM | 300 nM | 
9 | CC(=O)c1ccc(/C=C2\SC(c3ccc(C)cc3)=NC2=O)cc1 | 580 nM | 160 nM | 
10 | COC1CCC(=Cc2sc(-c3ccc(C)cc3)nc2O)CC1 (stereo unspecified) | 1560 nM | 590 nM | 
11 | Cc1ccc(C2=NC(=O)/C(=C/c3cccs3)S2)cc1 | 980 nM | 860 nM | 
12 | COc1ccc(/C=C2\S/C(=N/c3ccc(C)cc3)NC2=O)cc1 | 2900 nM | > 30000 nM | 
13 | Cc1ccc(C2=NC(=O)/C(=C/c3cccc(S(N)(=O)=O)c3)S2)cc1 | 1440 nM | 250 nM | solubility [3]: 30 mM (≈ 10800 µg/mL); solubility [4]: 0.08 mM (≈ 28.7 µg/mL)
14 | COC(=O)c1ccc(/C=C2\SC(c3ccc(C)cc3)=NC2=O)cc1 | 690 nM | 160 nM | 
15 | Cc1ccc(C2=NC(=O)/C(=C/c3ccc(OC(=O)N4CCOCC4)cc3)S2)cc1 | 740 nM | 330 nM | solubility [3]: 10 mM (≈ 4080 µg/mL); solubility [4]: 0.05 mM (≈ 20.4 µg/mL)
16 | COc1ccc(/C=C2\OC(c3ccc(C)cc3)=NC2=O)cc1 | 10500 nM | 1860 nM | 
17 | Cc1ccc(C2=NC(=O)/C(=C/c3cccnc3)S2)cc1 | 1240 nM | 280 nM | 
18 | COC(=O)/C=C/c1ccc(/C=C2\SC(c3ccc(C)cc3)=NC2=O)cc1 | 3610 nM | 180 nM | 
19 | Cc1ccc(C2=NC(=O)/C(=C/c3ccc(N)cc3)S2)cc1 | 1330 nM | 580 nM | 
20 | Cc1ccc(-c2nc(O)c(C=C3CCCCC3)s2)cc1 | 790 nM | 350 nM | 
21 | COc1ccc(/C=C2\SC(c3ccncc3)=NC2=O)cc1 | 2990 nM | 440 nM | 
22 | Cc1ccc(C2=NC(=O)/C(=C/c3[nH]cnc3C)S2)cc1 | 14900 nM | 6040 nM | 
23 | COc1ccc(C(=C2SC(c3ccc(C)cc3)=NC2=O)c2ccc(OC)cc2)cc1 | 8550 nM | 6150 nM | 
24 | Cc1ccc(C2=NC(=O)/C(=C/c3ncc[nH]3)S2)cc1 | 6090 nM | 2690 nM | 

Row | Compound | IC50 [1] | IC50 [2] | also measured
25 | COc1ccc(/C=C2\SC(c3cccnc3)=NC2=O)cc1 | 2660 nM | 960 nM | 
26 | COc1ccc(/C=C/C=C2\SC(c3ccc(C)cc3)=NC2=O)cc1 | 220 nM | 350 nM | 
27 | Cc1ccc(C2=NC(=O)/C(=C/C34CC5CC(CC(C5)C3)C4)S2)cc1 | 410 nM | 120 nM | 
28 | COc1ccc(/C=C2\N=C(c3ccc(C)cc3)OC2=O)cc1 | > 30000 nM | > 30000 nM | 
29 | COc1ccc(-c2sc(-c3ccc(C)cc3)nc2O)cc1 | 430 nM | 170 nM | solubility [3]: 50 mM (≈ 14900 µg/mL); solubility [4]: 0.05 mM (≈ 14.9 µg/mL)
30 | Cc1ccc(C2=NC(=O)/C(=C/c3ccc(OCCN4CCOCC4)cc3)S2)cc1 | 2330 nM | 520 nM | solubility [3]: 10 mM (≈ 4090 µg/mL); solubility [4]: 0.03 mM (≈ 12.3 µg/mL)
31 | CCCCCC(O)c1cccc(OCc2ccc3ccccc3n2)c1 (stereo unspecified) [REV-5901] |  |  | Activity [5]: 22.5%; viability at 48 h, 100 µM [6]: < 1%
32 | COc1ccc(/C=C2/SC(c3cccc4ccccc34)=NC2=O)cc1 | 120 nM | 80 nM | solubility [3]: 10 mM (≈ 3450 µg/mL); solubility [4]: 0.03 mM (≈ 10.4 µg/mL)
33 | COc1ccc(/C=C2/SC(=S)N(c3ccc(C)cc3)C2=O)cc1 | > 30000 nM | > 30000 nM | 
34 | Cc1ccc(C2=NC(=O)/C(=C/c3ccc(OCC(=O)N4CCOCC4)cc3)S2)cc1 | 1660 nM | 730 nM | solubility [3]: 20 mM (≈ 8450 µg/mL); solubility [4]: 0.05 mM (≈ 21.1 µg/mL)
35 | Cc1ccc(C2=NC(=O)/C(=C/c3ccc[nH]3)S2)cc1 | 1580 nM | 8020 nM | 
36 | COc1ccc(/C=C2\N=C(c3ccc(C)cc3)NC2=O)cc1 | 1950 nM | 7800 nM | 
37 | Cc1ccc(C2=NC(=O)/C(=C/c3ccc(C(=O)O)cc3)S2)cc1 | 8360 nM | 1460 nM | 
38 | COc1ccc(/C=C2\SC(c3ccc(C)cc3)=NC2=O)cc1 |  |  | solubility [3]: 10 mM (≈ 3090 µg/mL); inhibition [7]: inactive; solubility [4]: 0.03 mM (≈ 9.28 µg/mL); inhibition [8]: Active
39 | CC(c1cc2ccccc2s1)N(O)C(N)=O (stereo unspecified) [ZILEUTON] |  |  | Activity [5]: 1.5%; viability at 48 h, 100 µM [6]: 86.5%
40 | COc1ccc(/C=C2\C=C(c3ccc(C)cc3)NC2=O)cc1 | 10300 nM | 11800 nM | 
41 | COc1ccc(/C=C2\C=C(c3ccc(C)cc3)OC2=O)cc1 | > 30000 nM | > 30000 nM | 
42 | COc1ccc(Cc2sc(-c3ccc(C)cc3)nc2O)cc1 | 720 nM | 200 nM | solubility [3]: 100 mM (≈ 31100 µg/mL); solubility [4]: 0.08 mM (≈ 24.9 µg/mL)
43 | COc1ccc(-c2sc(-c3ccc(Cl)cc3)nc2O)cc1 | 10 nM | 50 nM | solubility [3]: 50 mM (≈ 15900 µg/mL); solubility [4]: 0.05 mM (≈ 15.9 µg/mL); inhibition [9]: Active; IC50 [10]: > 30000 nM; Activity [11]: Non-toxic
44 | Cc1ccc(C2=NC(=O)/C(=C/c3ccc(S(C)(=O)=O)cc3)S2)cc1 | 5290 nM | 190 nM | 
45 | COc1ccc(NC2(OC)SC(c3ccc(C)cc3)=NC2=O)cc1 (stereo unspecified) | > 30000 nM | > 30000 nM | 
46 | COc1ccc(-c2sc(-c3ccc(C)cc3)nc2C)cc1 | 1500 nM | > 30000 nM | 
47 | Cc1ccc(C2=NC(=O)/C(=C/c3ccc(O)cc3)S2)cc1 | 1130 nM | 330 nM | solubility [3]: 50 mM (≈ 14800 µg/mL); solubility [4]: 0.03 mM (≈ 8.86 µg/mL)
